A short description of data set [1]: Same clinical study: adverse events and tolerability. It is filed as in vivo, humans. From the text: (§1) The Study objective was to assess safety and efficacy of pre-treatment with Tazarotene 0.1% gel and UVB phototherapy in comparison with the Tazarotene vehicle (placebo) and UVB phototherapy and UVB phototherapy, alone, for 10 weeks. During UVB phototherapy, topical agents were applied three times weekly to the target lesion by the phototherapy nurse. The study was a multicenter, investigator-masked study including 60 subjects and 120 target lesions. During the two-week pre-UVB phototherapy period the patients were randomly assigned to receive two of the following treatments: Tazarotene 0.1% gel once a day; vehicle gel once a day; or no treatment. The topical agents were applied once daily. Prior to UVB therapy, the minimal erythemal dose (MED) was assessed using a range of 20 mJoules/cm^2 up to 100 mJoules/cm^2. Initial starting UVB dose is 25% of MED. If MED is immeasurable, starting dose is 25 mJoules/cm^2. During the ten-week UVB phototherapy period the patients were treated with UVB therapy three times a week and topical therapy three times weekly (0.1% Tazarotene gel, vehicle gel, or no treatment) administered by the phototherapy nurse after UVB exposure. Study population was as follows: male or non-reproductive female; 18 years or older; stable plaque psoriasis; two bilaterally symmetrical plaques accessible to phototherapy; not exceeding 50% of TBS; baseline plaque elevation of at least four (moderate, in 0-8 scoring system); no oral retinoid within two months; no excessive vitamin A intake; no oral psoriatic therapy (other than retinoid) or PUVA within one month; no UVB within two weeks; no significant systemic disease or immunosuppression. The UVB exposure was increased until either improvement in psoriasis was noted or MED was reached. If one target lesion reached MED earlier than the other, a photo-opaque covering was applied to the former so the latter site could still be treated with a higher dose of UVB irradiation. If both target lesions cleared, UVB was discontinued. […] The following evaluation criteria was used: • Efficacy Variable • Plaque elevation, scaling, erythema: • Grading Scale • 0 = none, 2= mild, 4=moderate, 6=severe, 8=very severe (with whole-point increments (1, 3, 5, 7) serving as mid-points) • Global response to treatment • Total cumulative UVB exposure (mJoules/cm^2)
The following adverse events were reported during the study: […]

In another data set the test system is stable plaque psoriasis. Kind of data set: Clinical study of Tazarotene 0.1% gel plus UVB phototherapy versus vehicle plus UVB or UVB alone: efficacy on target lesions. The class given is in vivo, humans.
Source text: as §1
Treatment success is defined as moderate response or better.

Setting [2] is: adverse events reported during the study (count), with UVB phototherapy.

In data set [1] (setting [2]), `CCOC(=O)c1ccc(C#Cc2ccc3c(c2)C(C)(C)CCS3)nc1` [Tazarotene] displayed a Burning sensation of 1, an Itching of 1, a Lesional irritation of 0 and a Perilesional irritation of 2. In data set [1] (setting [2]), this molecule showed a Perilesional tenderness of 0. Besides, in data set [1] (all reported adverse events), the “severity of adverse events” value was “mild”. For the same molecule, the reduction in plaque entry in the data set with stable plaque psoriasis (Figure 1, Tazarotene plus UVB compared with UVB treatment alone) is recorded as “more effective”. For the same molecule, the reduction in scaling result in the data set on stable plaque psoriasis (Figure 2, Tazarotene plus UVB compared with UVB treatment alone) was “more effective”. In addition, the reduction in erythema entry in the data set on stable plaque psoriasis (Figure 3, Tazarotene plus UVB compared with UVB treatment alone) is “more effective”. In addition, in the data set with stable plaque psoriasis (Figure 4, Tazarotene and UVB phototherapy, by day 81, success = moderate response or better), the treatment success rate was determined as 100%. Besides, in the data set with stable plaque psoriasis (Figure 5, Tazarotene and UVB compared with UVB alone or UVB with vehicle (placebo)), the reductions in plaque entry is on record as “greater”. Also, the reductions in scaling entry with stable plaque psoriasis (Figure 6, Tazarotene and UVB compared with UVB alone or UVB with vehicle (placebo)) was “greater”. Further, in the data set on stable plaque psoriasis (Figure 7, Tazarotene and UVB compared with UVB alone or UVB with vehicle (placebo)), the reductions in erythema result was “greater”. In the data set with stable plaque psoriasis (Figure 8, Tazarotene and UVB treatment, at 81 days), the success rate is 100%. Further, in the data set on stable plaque psoriasis (Figure 8, Tazarotene and UVB, at day 53), the success entry is given as “about 90%”. The “time to reach treatment success” value with stable plaque psoriasis (Tazarotene and UVB compared with vehicle and UVB) is “more quickly”. Further, in the data set on stable plaque psoriasis (Tazarotene and UVB compared with vehicle and UVB or UVB alone), the “overall effectiveness in treating psoriasis” value is on record as “more effective”.
